Test results from patent US8211927B2, “5-phenyl-isoxazole-3-carboxamide derivatives as TRPV1 modulators” (MSD, Oss B.V., priority 2007, dated 2012).

Target: T1, human VR1 (Homo sapiens, UniProt Q8NER1)
T1 construct: expressed in transfected cells
Experiment: FLIPR Calcium 3 calcium flux assay (headed Vanilloid Receptor Binding Assay), antagonist activity against capsaicin
Type: cell-based
Conditions: Chinese hamster ovary cells expressing human VR1; for inhibition at 10 µM: 10 min, highest concentration of 10 μM, read-out: TRPV1 % Mean effect at 10 μM concentration; for EC50: antagonist activity vs 30 nM capsaicin, read-out: TRPV1 pEC50 (converted)
Excerpt: Methods to construct such recombinant cell lines are well known in the art (Sambrook et al., Molecular Cloning: a Laboratory Manual, Cold Spring Harbor Laboratory Press, Cold Spring Harbor, 2000). The compounds of the invention are thus useful in the treatment of TRPV1 mediated disorders, such as in the treatment of acute and chronic pain disorders, acute and chronic neuropathic pain, acute and chronic inflammatory pain, respiratory diseases and in lower urinary tract disorders.
Test compounds were prepared as stock solution in dimethylsulfoxide and tested for activity over several log units (ranging 100 μM-100 pM). Compounds were further diluted in assay buffer as necessary for IC50 determination.
Chinese hamster ovary cells expressing human VR1 were grown in DMEM/F12 50/50 Mix (Mediatech, Inc., Herndon, Va., USA), supplemented with 10% FetalClone II (Hyclone, Logan, Utah, USA), 1% GlutaMax (Invitrogen Corp., Carlsbad, Calif., USA), 1% Pen/Strep (Mediatech) and 0.4 mg/ml G418 (Mediatech). The day before the assay, cells were seeded into 384-well tissue culture-treated black plates with clear bottoms (Corning, Inc., Corning, N.Y., USA), at 10,000 viable cells/well in 50 μl/well of medium containing no G418.
On the day of the assay, which is the FLIPR® Calcium 3 Assay commercially available from Molecular Devices Corp., Sunnyvale, Calif. USA, the plating medium was removed and replaced with 25 μl/well 1× Calcium 3 Assay kit dye, prepared in VR1 Buffer (160 mM NaCl, 4.5 mM KCl, 10 mM HEPES, 10 mM Glucose, 2 mM CaCl2, 1 mM MgCl2 and 0.5 mM Probenecid). After 1 hour incubation at room temperature, the plates were loaded into the FLIPR (Molecular Devices, Corp.), which adds 12.5 μl of test compound in VR1 Buffer containing 4% dimethylsulfoxide and reads the subsequent change in the fluorescence of the cells to monitor agonist activity. Ten minutes after compound addition, the plates were reloaded into the FLIPR, which adds 12.5 μl of 30 nM capsaicin in VR1 Buffer and reads the subsequent change in the fluorescence of the cells to monitor antagonist activity. In this way, the same assay was used to assess both the agonist activity and antagonist activity of test compounds.

T1 sequence (Q8NER1 whole entry): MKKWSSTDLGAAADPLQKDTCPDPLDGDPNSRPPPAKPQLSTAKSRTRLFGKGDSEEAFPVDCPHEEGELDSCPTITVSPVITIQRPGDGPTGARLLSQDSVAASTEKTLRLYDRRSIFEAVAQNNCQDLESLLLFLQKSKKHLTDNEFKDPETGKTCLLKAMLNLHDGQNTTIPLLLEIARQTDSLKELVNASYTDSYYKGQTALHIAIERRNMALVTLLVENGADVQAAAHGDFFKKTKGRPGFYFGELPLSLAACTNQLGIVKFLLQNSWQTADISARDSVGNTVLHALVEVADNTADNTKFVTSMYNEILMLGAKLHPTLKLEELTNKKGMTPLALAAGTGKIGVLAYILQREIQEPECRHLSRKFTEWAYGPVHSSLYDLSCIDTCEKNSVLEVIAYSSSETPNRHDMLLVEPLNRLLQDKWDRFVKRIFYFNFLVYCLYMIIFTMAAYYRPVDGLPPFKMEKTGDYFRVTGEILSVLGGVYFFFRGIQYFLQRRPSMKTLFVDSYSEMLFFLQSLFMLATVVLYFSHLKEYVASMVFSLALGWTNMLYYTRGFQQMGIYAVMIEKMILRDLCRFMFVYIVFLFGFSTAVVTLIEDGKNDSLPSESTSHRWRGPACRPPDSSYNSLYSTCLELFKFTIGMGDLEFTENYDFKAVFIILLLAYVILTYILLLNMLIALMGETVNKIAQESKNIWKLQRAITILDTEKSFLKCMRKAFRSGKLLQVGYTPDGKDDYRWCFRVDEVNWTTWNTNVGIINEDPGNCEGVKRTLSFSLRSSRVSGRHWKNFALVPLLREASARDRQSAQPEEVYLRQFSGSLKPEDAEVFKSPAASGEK

SMILES	inhibition at 10 µM [%]	EC50 [nM]
O=C(NC1CCCC1)c1noc(-c2ccc(C(F)(F)F)cc2)c1F	96	31.6
O=C(NC1CCCCC1)c1noc(-c2ccc(Cl)cc2)c1Cl	88	63.1
Cc1c(C(=O)NC2CCOCC2)noc1-c1ccc(C(F)(F)F)c(F)c1	99	12.6
CCCC(C)NC(=O)c1noc(-c2ccc(Cl)cc2)c1Cl (centres unmarked)	89	158
O=C(Nc1cccc(CO)c1)c1noc(-c2ccc(C(F)(F)F)c(F)c2)c1Cl	103	31.6
O=C(NC1CCCC1)c1noc(-c2ccc(Cl)cc2)c1Cl	102	15.8
CC[C@H](CO)NC(=O)c1noc(-c2ccc(C(F)(F)F)c(F)c2)c1C	99	63.1
O=C(NC1CCCC1)c1noc(-c2ccc(F)cc2)c1Cl	98	100
CCCC(C)NC(=O)c1cc(-c2ccc(Cl)cc2)on1 (centres unmarked)	50	
O=C(NC1CCCC1)c1noc(-c2ccc(C(F)(F)F)cc2)c1Br	67	10
O=C(NC1CCCC1)c1cc(-c2ccc(Cl)cc2)on1	17	
CCCc1c(C(=O)CC2CCCC2)noc1-c1ccc(C(F)(F)F)cc1	98	100
O=C(NC1CCCC1)c1noc(-c2ccc(C(F)(F)F)cc2)c1Cl	90	3.98
O=C(NC1CCCC1)c1cc(-c2ccc(C(F)(F)F)cc2)on1	97	501
Cc1c(C(=O)NC2CCCC2)noc1-c1ccc(C(F)(F)F)cc1	101	39.8
O=C(NC1CCOCC1)c1noc(-c2ccc(C(F)(F)F)cc2)c1Cl	89	31.6
Cc1c(C(=O)N[C@@H](C)C(C)C)noc1-c1ccc(C(F)(F)F)c(F)c1	103	100
